PubChem BioAssay AID1963441 (Molecular Pharmacology Branch, DTP, NCI, 2024)

System: NCI-H1876 complex spheroid growth, % test/control
Test: Anticancer human tumor NCI-H1876 cell line growth inhibition [Asc];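 also: compound exposure lasted 7 days starting three days after seeding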;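 as to viability, T/C: 100% = DMSO vehicle control wells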
Conditions: for IC50: curve of first compound; for viability, T/C: stronger effect = lower value
Procedure, shortened: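 Spheroid model: tumor line + HUVEC + hMSC. Single agents and combinations; top conc. at/near clinical Cmax (10 microM if undetermined), half-log dilutions. DMSO stocks at 800-fold test concentration.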

[1] = second compound 0.00316 µM, first compound 0.00316 µM
[2] = second compound 0.00316 µM, first compound 0.01 µM
[3] = second compound 0.00316 µM, first compound 0.0316 µM
[4] = second compound 0.00316 µM, first compound 0.1 µM
[5] = second compound 0.00316 µM, first compound 0.316 µM
[6] = second compound 0.00316 µM, first compound 1 µM
[7] = second compound 0.01 µM, first compound 0.00316 µM
[8] = second compound 0.01 µM, first compound 0.01 µM
[9] = second compound 0.01 µM, first compound 0.0316 µM
[10] = second compound 0.01 µM, first compound 0.1 µM
[11] = second compound 0.01 µM, first compound 0.316 µM
[12] = second compound 0.01 µM, first compound 1 µM
[13] = second compound 0.0316 µM, first compound 0.00316 µM
[14] = second compound 0.0316 µM, first compound 0.01 µM
[15] = second compound 0.0316 µM, first compound 0.0316 µM
[16] = second compound 0.0316 µM, first compound 0.1 µM
[17] = second compound 0.0316 µM, first compound 0.316 µM
[18] = second compound 0.0316 µM, first compound 1 µM
[19] = second compound 0.1 µM, first compound 0.00316 µM
[20] = second compound 0.1 µM, first compound 0.01 µM
[21] = second compound 0.1 µM, first compound 0.0316 µM
[22] = second compound 0.1 µM, first compound 0.1 µM
[23] = second compound 0.1 µM, first compound 0.316 µM
[24] = second compound 0.1 µM, first compound 1 µM
[25] = second compound 0.316 µM, first compound 0.00316 µM
[26] = second compound 0.316 µM, first compound 0.01 µM
[27] = second compound 0.316 µM, first compound 0.0316 µM
[28] = second compound 0.316 µM, first compound 0.1 µM
[29] = second compound 0.316 µM, first compound 0.316 µM
[30] = second compound 0.316 µM, first compound 1 µM
[31] = second compound 1 µM, first compound 0.00316 µM
[32] = second compound 1 µM, first compound 0.01 µM
[33] = second compound 1 µM, first compound 0.0316 µM
[34] = second compound 1 µM, first compound 0.1 µM
[35] = second compound 1 µM, first compound 0.316 µM
[36] = second compound 1 µM, first compound 1 µM

CCN1CCN(Cc2ccc(Nc3ncc(F)c(-c4cc(F)c5nc(C)n(C(C)C)c5c4)n3)nc2)CC1 + CNC(C)C(=O)NC1CN(S(=O)(=O)c2cccc(S(=O)(=O)N3CCC4CCC(C(=O)NC(c5ccccc5)c5ccccc5)N4C(=O)C(NC(=O)C(C)NC)C3)c2)CCC2CCC(C(=O)NC(c3ccccc3)c3ccccc3)N2C1=O
IC50 (second compound 0.00316 µM): > 1 µM
IC50 (second compound 0.01 µM): > 1 µM
IC50 (second compound 0.0316 µM): > 1 µM
IC50 (second compound 0.1 µM): > 1 µM
IC50 (second compound 0.316 µM): > 1 µM
IC50 (second compound 1 µM): > 1 µM
viability, T/C [1]: 104%
viability, T/C [2]: 89.2%
viability, T/C [3]: 103%
viability, T/C [4]: 93.9%
viability, T/C [5]: 125%
viability, T/C [6]: 128%
viability, T/C [7]: 105%
viability, T/C [8]: 104%
viability, T/C [9]: 102%
viability, T/C [10]: 99.8%
viability, T/C [11]: 126%
viability, T/C [12]: 132%
viability, T/C [13]: 105%
viability, T/C [14]: 93.1%
viability, T/C [15]: 102%
viability, T/C [16]: 108%
viability, T/C [17]: 129%
viability, T/C [18]: 136%
viability, T/C [19]: 100%
viability, T/C [20]: 102%
viability, T/C [21]: 104%
viability, T/C [22]: 109%
viability, T/C [23]: 118%
viability, T/C [24]: 131%
viability, T/C [25]: 110%
viability, T/C [26]: 93.1%
viability, T/C [27]: 101%
viability, T/C [28]: 104%
viability, T/C [29]: 126%
viability, T/C [30]: 140%
viability, T/C [31]: 102%
viability, T/C [32]: 105%
viability, T/C [33]: 109%
viability, T/C [34]: 107%
viability, T/C [35]: 129%
viability, T/C [36]: 122%

NC(=O)C(=Cn1cnc(-c2cc(C(F)(F)F)cc(C(F)(F)F)c2)n1)c1cncnc1 + CNC(C)C(=O)NC1CN(S(=O)(=O)c2cccc(S(=O)(=O)N3CCC4CCC(C(=O)NC(c5ccccc5)c5ccccc5)N4C(=O)C(NC(=O)C(C)NC)C3)c2)CCC2CCC(C(=O)NC(c3ccccc3)c3ccccc3)N2C1=O
IC50 (second compound 0.00316 µM): > 0.3 µM
IC50 (second compound 0.01 µM): > 0.3 µM
IC50 (second compound 0.0316 µM): > 0.3 µM
IC50 (second compound 0.1 µM): > 0.3 µM
IC50 (second compound 0.316 µM): > 0.3 µM
IC50 (second compound 1 µM): > 0.3 µM
viability, T/C (second compound 0.00316 µM, first compound 0.000949 µM): 110%
viability, T/C (second compound 0.00316 µM, first compound 0.003 µM): 92.8%
viability, T/C (second compound 0.00316 µM, first compound 0.00949 µM): 91.9%
viability, T/C (second compound 0.00316 µM, first compound 0.03 µM): 83.8%
viability, T/C (second compound 0.00316 µM, first compound 0.0949 µM): 100%
viability, T/C (second compound 0.00316 µM, first compound 0.3 µM): 105%
viability, T/C (second compound 0.01 µM, first compound 0.000949 µM): 93.4%
viability, T/C (second compound 0.01 µM, first compound 0.003 µM): 90.6%
viability, T/C (second compound 0.01 µM, first compound 0.00949 µM): 96.6%
viability, T/C (second compound 0.01 µM, first compound 0.03 µM): 92.4%
viability, T/C (second compound 0.01 µM, first compound 0.0949 µM): 108%
viability, T/C (second compound 0.01 µM, first compound 0.3 µM): 98.2%
viability, T/C (second compound 0.0316 µM, first compound 0.000949 µM): 91.4%
viability, T/C (second compound 0.0316 µM, first compound 0.003 µM): 102%
viability, T/C (second compound 0.0316 µM, first compound 0.00949 µM): 92.4%
viability, T/C (second compound 0.0316 µM, first compound 0.03 µM): 92.5%
viability, T/C (second compound 0.0316 µM, first compound 0.0949 µM): 104%
viability, T/C (second compound 0.0316 µM, first compound 0.3 µM): 94%
viability, T/C (second compound 0.1 µM, first compound 0.000949 µM): 86.2%
viability, T/C (second compound 0.1 µM, first compound 0.003 µM): 93.9%
viability, T/C (second compound 0.1 µM, first compound 0.00949 µM): 93.5%
viability, T/C (second compound 0.1 µM, first compound 0.03 µM): 104%
viability, T/C (second compound 0.1 µM, first compound 0.0949 µM): 102%
viability, T/C (second compound 0.1 µM, first compound 0.3 µM): 103%
viability, T/C (second compound 0.316 µM, first compound 0.000949 µM): 95.6%
viability, T/C (second compound 0.316 µM, first compound 0.003 µM): 96.9%
viability, T/C (second compound 0.316 µM, first compound 0.00949 µM): 88.6%
viability, T/C (second compound 0.316 µM, first compound 0.03 µM): 90.1%
viability, T/C (second compound 0.316 µM, first compound 0.0949 µM): 100%
viability, T/C (second compound 0.316 µM, first compound 0.3 µM): 91.5%
viability, T/C (second compound 1 µM, first compound 0.000949 µM): 96.8%
viability, T/C (second compound 1 µM, first compound 0.003 µM): 93.6%
viability, T/C (second compound 1 µM, first compound 0.00949 µM): 102%
viability, T/C (second compound 1 µM, first compound 0.03 µM): 95.9%
viability, T/C (second compound 1 µM, first compound 0.0949 µM): 104%
viability, T/C (second compound 1 µM, first compound 0.3 µM): 86.3%

O=C(c1ccc(F)c(F)c1Nc1ccc(I)cc1F)N1CC(O)([C@@H]2CCCCN2)C1 + CNC(C)C(=O)NC1CN(S(=O)(=O)c2cccc(S(=O)(=O)N3CCC4CCC(C(=O)NC(c5ccccc5)c5ccccc5)N4C(=O)C(NC(=O)C(C)NC)C3)c2)CCC2CCC(C(=O)NC(c3ccccc3)c3ccccc3)N2C1=O
IC50 (second compound 0.00316 µM): > 1 µM
IC50 (second compound 0.01 µM): > 1 µM
IC50 (second compound 0.0316 µM): > 1 µM
IC50 (second compound 0.1 µM): > 1 µM
IC50 (second compound 0.316 µM): > 1 µM
IC50 (second compound 1 µM): > 1 µM
viability, T/C [1]: 109%
viability, T/C [2]: 87.3%
viability, T/C [3]: 114%
viability, T/C [4]: 80.5%
viability, T/C [5]: 80.5%
viability, T/C [6]: 70.6%
viability, T/C [7]: 110%
viability, T/C [8]: 93.6%
viability, T/C [9]: 96.2%
viability, T/C [10]: 82.3%
viability, T/C [11]: 90.8%
viability, T/C [12]: 81.7%
viability, T/C [13]: 98.5%
viability, T/C [14]: 90.3%
viability, T/C [15]: 102%
viability, T/C [16]: 87.3%
viability, T/C [17]: 85.5%
viability, T/C [18]: 83.2%
viability, T/C [19]: 106%
viability, T/C [20]: 103%
viability, T/C [21]: 96.3%
viability, T/C [22]: 89.8%
viability, T/C [23]: 86.3%
viability, T/C [24]: 90.5%
viability, T/C [25]: 106%
viability, T/C [26]: 90.1%
viability, T/C [27]: 89.9%
viability, T/C [28]: 96.9%
viability, T/C [29]: 97%
viability, T/C [30]: 72.3%
viability, T/C [31]: 107%
viability, T/C [32]: 93.7%
viability, T/C [33]: 99.2%
viability, T/C [34]: 97.4%
viability, T/C [35]: 88%
viability, T/C [36]: 69.8%
